According to PMC4624142, “Purification and characterisation of intracellular alpha-galactosidases from Acinetobacter sp” (3 Biotech, 2015):

Key:
Assay type in all cases: biochemical, Acinetobacter sp.
Conditions in all cases: 20 mM Tris pH 7.0, 50 °C; unit mM ml^−1 [sic]
[1] = test system: T1, alpha-galactosidase I (Ag-I); experiment: reducing sugar (DNS, […] nm), Lineweaver-Burk
T1 construct: native intracellular enzyme purified from Acinetobacter sp. isolate G1 (soil, sugarcane industry, Sangareddy, India); 65 kDa, monomer

[2] = test system: T2, alpha-galactosidase II (Ag-II); experiment: reducing sugar (DNS, […] nm), Lineweaver-Burk
T2 construct: native intracellular enzyme purified from Acinetobacter sp. isolate G1 (soil, sugarcane industry, Sangareddy, India); 37 kDa, monomer

[3] = test system: T1, alpha-galactosidase I (Ag-I); experiment: p-nitrophenol release at […] nm, Lineweaver-Burk
[4] = test system: T2, alpha-galactosidase II (Ag-II); experiment: p-nitrophenol release at […] nm, Lineweaver-Burk

SMILES | Michaelis constant (K m) mM ml^-1 [1] [mM ml^−1] | Michaelis constant (K m) mM ml^-1 [2] [mM ml^−1] | Michaelis constant (K m) mM ml^-1 [3] [mM ml^−1] | Michaelis constant (K m) mM ml^-1 [4] [mM ml^−1]
OC[C@H]1O[C@H](OC[C@H]2O[C@H](O[C@]3(CO)O[C@H](CO)[C@@H](O)[C@@H]3O)[C@H](O)[C@@H](O)[C@@H]2O)[C@H](O)[C@@H](O)[C@H]1O [Raffinose] | 3.26 | 0.74 | – | –
O=[N+]([O-])c1ccc(O[C@H]2O[C@H](CO)[C@H](O)[C@H](O)[C@H]2O)cc1 [ρNPGal, p-Nitrophenyl-α-D-galactopyranoside] | – | – | 0.33 | 0.68
